Measurements from the supplement of paper PMC10307832.

Experiments:
Assay in all cases: relative viability (nuclei count vs DMSO), 5 days (fraction); higher = more cells survive
MK-2206 + Luminespib = compound: NC1(c2ccc(-c3nc4ccn5c(=O)[nH]nc5c4cc3-c3ccccc3)cc2)CCC1 [MK-2206] + CCNC(=O)c1noc(-c2cc(C(C)C)c(O)cc2O)c1-c1ccc(CN2CCOCC2)cc1 [Luminespib] (partner 0.01 µM)
Procedure, shortened: (§1)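 Cells from lung cancer lines were seeded into 1536-well plates and, one day later, dosed by pin tool. Treatments were either a single drug or a fixed dose of an anchor drug with five library-drug doses (not always all listed) in √10 steps. After 5 days, nuclei were stained in a one-step fixation (final 0.05% Triton X-100, 1% formaldehyde, 1 ug/ml Hoechst) and counted on 4× images, and relative viability is the treated-to-vehicle nuclei ratio, as the median of duplicate plates.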

MK-2206 + Crizotinib = compound: NC1(c2ccc(-c3nc4ccn5c(=O)[nH]nc5c4cc3-c3ccccc3)cc2)CCC1 [MK-2206] + C[C@@H](Oc1cc(-c2cnn(C3CCNCC3)c2)cnc1N)c1c(Cl)ccc(F)c1Cl [Crizotinib] (partner 1 µM)
Procedure, shortened: as §1

Pictilisib + Vorinostat = compound: CS(=O)(=O)N1CCN(Cc2cc3nc(-c4cccc5[nH]ncc45)nc(N4CCOCC4)c3s2)CC1 [Pictilisib] + O=C(CCCCCCC(=O)Nc1ccccc1)NO [Vorinostat] (partner 1 µM)
Procedure, shortened: as §1

MK-2206 + Palbociclib = compound: NC1(c2ccc(-c3nc4ccn5c(=O)[nH]nc5c4cc3-c3ccccc3)cc2)CCC1 [MK-2206] + CC(=O)c1c(C)c2cnc(Nc3ccc(N4CCNCC4)cn3)nc2n(C2CCCC2)c1=O [Palbociclib] (partner 0.5 µM)
Procedure, shortened: as §1

MK-2206 + Linsitinib = compound: NC1(c2ccc(-c3nc4ccn5c(=O)[nH]nc5c4cc3-c3ccccc3)cc2)CCC1 [MK-2206] + C[C@]1(O)C[C@@H](c2nc(-c3ccc4ccc(-c5ccccc5)nc4c3)c3c(N)nccn32)C1 [Linsitinib] (partner 1 µM)
Procedure, shortened: as §1

Row | Cell Line | relative viability (MK-2206 + Luminespib; first compound 0.01 µM) | relative viability (MK-2206 + Luminespib; first compound 0.03162 µM) | relative viability (MK-2206 + Luminespib; first compound 0.3162 µM) | relative viability (MK-2206 + Luminespib; first compound 1 µM) | relative viability (MK-2206 + Crizotinib; first compound 0.01 µM) | relative viability (MK-2206 + Crizotinib; first compound 0.03162 µM) | relative viability (MK-2206 + Crizotinib; first compound 0.3162 µM) | relative viability (MK-2206 + Crizotinib; first compound 1 µM) | relative viability (Pictilisib + Vorinostat; first compound 0.02 µM) | relative viability (Pictilisib + Vorinostat; first compound 0.06325 µM) | relative viability (Pictilisib + Vorinostat; first compound 0.6325 µM) | relative viability (Pictilisib + Vorinostat; first compound 2 µM) | relative viability (MK-2206 + Palbociclib; first compound 0.01 µM) | relative viability (MK-2206 + Palbociclib; first compound 0.03162 µM) | relative viability (MK-2206 + Palbociclib; first compound 0.3162 µM) | relative viability (MK-2206 + Palbociclib; first compound 1 µM) | relative viability (MK-2206 + Linsitinib; first compound 0.01 µM) | relative viability (MK-2206 + Linsitinib; first compound 0.03162 µM) | relative viability (MK-2206 + Linsitinib; first compound 0.3162 µM) | relative viability (MK-2206 + Linsitinib; first compound 1 µM)
1 | NCI-H2009 | 1.01 | 0.992 | 1.06 | 1.01 | 1.04 | 1.05 | 1.12 | 1.04 | 0.766 | 0.723 | 0.645 | 0.5 | 0.139 | 0.25 | 0.179 | 0.177 | 1.15 | 1.16 | 1.16 | 1.02
2 | SW 900 | 0.167 | 0.197 | 0.175 | 0.17 | – | – | – | – | 0.695 | 0.579 | 0.382 | 0.231 | 0.582 | – | 0.532 | 0.423 | – | – | – | –
3 | NCI-H441 | 0.31 | 0.409 | 0.271 | 0.262 | 0.798 | 0.639 | 0.612 | 0.643 | 0.972 | 0.682 | 0.607 | 0.457 | 0.226 | 0.206 | 0.207 | 0.167 | 0.674 | 0.579 | 0.435 | 0.415
4 | NCI-H1623 | 0.499 | 0.526 | 0.492 | 0.458 | – | – | – | – | – | – | – | – | – | – | – | – | – | – | – | –
5 | NCI-H1437 | 1.13 | 1.13 | 0.855 | 1.27 | 0.852 | 0.938 | 0.914 | 0.997 | 0.882 | 0.949 | 0.611 | 0.516 | 0.304 | 0.332 | 0.336 | 0.286 | 0.99 | 1.08 | 0.948 | 0.951
6 | PC-14 | 0.181 | 0.214 | 0.143 | 0.159 | 0.826 | 0.928 | 0.914 | 0.879 | 0.72 | 0.661 | 0.534 | 0.325 | 0.512 | 0.481 | 0.589 | 0.474 | 0.869 | 1.03 | 0.862 | 0.92
7 | LCLC-103H | 0.983 | 1.06 | 0.975 | 0.89 | 0.989 | 0.963 | 0.99 | 1.04 | 0.84 | 0.737 | 0.634 | 0.469 | 0.496 | 0.499 | 0.461 | 0.462 | 1.08 | 1.07 | 1 | 1.12
8 | COR-L23 | 0.713 | 0.695 | 0.581 | 0.529 | 0.69 | 0.691 | 0.796 | 0.693 | 0.491 | 0.407 | 0.386 | 0.286 | 0.277 | 0.312 | 0.268 | 0.291 | 0.909 | 0.996 | 1 | 0.693
9 | HCC-366 | – | – | – | – | 0.48 | 0.532 | 0.452 | 0.442 | 0.45 | 0.368 | 0.226 | 0.118 | 0.392 | 0.38 | 0.225 | 0.244 | 0.637 | 0.675 | 0.364 | 0.384
10 | EBC-1 | – | – | – | – | 0.189 | 0.205 | 0.198 | 0.172 | – | – | – | – | – | – | – | – | 0.795 | 0.951 | 0.681 | 0.557
11 | NCI-H1703 | – | – | – | – | 0.809 | 0.658 | 0.302 | 0.511 | – | – | – | – | – | – | – | – | 1.01 | 1.03 | 0.544 | 0.748
12 | NCI-H1395 | 0.77 | 0.606 | 0.746 | 0.651 | – | – | – | – | 1.08 | 0.727 | 0.498 | 0.369 | 0.65 | 0.664 | 0.485 | 0.526 | 1.22 | 1.03 | 0.915 | 1.23
13 | NCI-H1563 | 0.528 | 0.518 | 0.577 | 0.477 | 0.771 | 0.828 | 0.75 | 0.604 | – | – | – | – | – | – | – | – | 1.12 | 1.22 | 0.797 | 0.742
14 | NCI-H1299 | – | – | – | – | 0.957 | 0.963 | 1.06 | 0.94 | – | – | – | – | – | – | – | – | 0.947 | 1.08 | 0.977 | 0.965
15 | NCI-H596 | 0.984 | 0.919 | 0.889 | 0.737 | 0.978 | 1 | 0.898 | 0.736 | 0.545 | 0.618 | 0.371 | 0.709 | – | – | – | – | 1.14 | 1.11 | 0.846 | 0.734
16 | NCI-H2170 | 0.697 | 0.822 | 0.616 | 0.557 | 1.17 | 1.41 | 1.21 | 1.18 | 0.856 | 0.822 | 0.611 | 0.304 | 0.4 | 0.391 | 0.354 | 0.343 | – | – | – | –
17 | A549 | – | – | – | – | 0.733 | 0.744 | 0.641 | 0.535 | – | – | – | – | – | – | – | – | 0.657 | 0.651 | 0.574 | 0.512
18 | NCI-H522 | 1.28 | 1.31 | 1.17 | 1.19 | – | – | – | – | 0.857 | 0.866 | 0.757 | 0.608 | 1.04 | 1.12 | 1.05 | 1.09 | – | – | – | –
19 | NCI-H1650 | 0.185 | 0.182 | 0.215 | 0.183 | 0.97 | 1.04 | 1.04 | 0.751 | 0.566 | 0.666 | 0.819 | 0.358 | 0.291 | 0.334 | 0.331 | 0.356 | – | – | – | –
20 | NCI-H1648 | – | – | – | – | – | – | – | – | 0.393 | 0.378 | 0.239 | 0.19 | 0.229 | 0.269 | 0.301 | 0.331 | – | – | – | –
21 | NCI-H2342 | 0.751 | 0.655 | 0.77 | 0.677 | – | – | – | – | 0.672 | 0.814 | 0.695 | 0.529 | 0.58 | 0.51 | 0.469 | 0.473 | – | – | – | –
22 | Calu-6 | – | – | – | – | 0.717 | 0.856 | 0.786 | 0.729 | – | – | – | – | – | – | – | – | – | 0.961 | 0.963 | 0.926
